ChEMBL document CHEMBL1144470, “Occurrence of the alpha-glucosidase inhibitor 1,4-Dideoxy-1,4-imino-D-arabinitol and related iminopentitols in marine sponges” (J Nat Prod, 2007)
Converted amounts (≈) assume the structure as drawn.

Experiment: Inhibition of yeast alpha-glucosidase
Parameters: species or system Saccharomyces cerevisiae

SMILES: OC[C@H]1NC[C@@H](O)[C@@H]1O
- IC50: 0.16 µg/mL (≈ 1.2 µM)
